From US12662489B2 (Sitryx Therapeutics Limited, priority 2023, dated 2026)
pIC50: −log10 of the molar value.

Columns and labels:
[1] = molecular target: T1, MTHFD2 recombinant human enzyme (Homo sapiens, UniProt P13995); experiment: MTHFD2 inhibition assay (NAD(P)H-Glo luminescence); details: for MTHFD1/MTHFD2 IC50 ratio: selectivity of MTHFD2 inhibition over MTHFD1, band
T1 sequence (P13995 36-350): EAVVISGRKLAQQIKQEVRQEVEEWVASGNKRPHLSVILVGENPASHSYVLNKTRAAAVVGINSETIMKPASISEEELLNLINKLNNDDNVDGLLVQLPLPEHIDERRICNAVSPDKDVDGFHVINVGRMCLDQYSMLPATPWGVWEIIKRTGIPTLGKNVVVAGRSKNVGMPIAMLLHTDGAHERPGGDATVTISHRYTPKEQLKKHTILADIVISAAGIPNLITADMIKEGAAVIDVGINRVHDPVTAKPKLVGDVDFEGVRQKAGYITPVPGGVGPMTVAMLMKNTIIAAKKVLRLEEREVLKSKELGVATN

[2] = molecular target: T2, MTHFD1 recombinant human enzyme (Homo sapiens, UniProt P11586); experiment: MTHFD1 inhibition assay (NAD(P)H-Glo luminescence); details: MTHFD1 IC50, recombinant human enzyme 200 nM, NADP, band
T2 sequence (P11586 2-291 limits assumed): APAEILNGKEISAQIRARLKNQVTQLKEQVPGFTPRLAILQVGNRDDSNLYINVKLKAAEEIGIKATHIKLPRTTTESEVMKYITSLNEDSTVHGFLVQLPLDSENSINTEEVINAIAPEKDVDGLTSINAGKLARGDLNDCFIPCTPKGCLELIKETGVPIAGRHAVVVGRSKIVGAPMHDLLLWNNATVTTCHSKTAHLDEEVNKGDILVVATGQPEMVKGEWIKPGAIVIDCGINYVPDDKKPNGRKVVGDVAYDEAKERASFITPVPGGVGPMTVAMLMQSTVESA

Row | Compound | pIC50 [1] | MTHFD1/MTHFD2 IC50 ratio [1] | pIC50 [2]
1 | COC[C@H]1CN(c2ccc3c4c(c(=O)oc3c2C)CN(C(=O)c2ccc(C(=O)NS(=O)(=O)N3[C@H](C)CC[C@H]3C)c(OC3CCC3)c2F)CC4)CCN1C [Example 177, 2-cyclobutoxy-N-(((2R,5R)-2,5-dimethylpyrrolidin-1-yl)sulfonyl)-3-fluoro-4-(8-((R)-3-(methoxymethyl)-4-methylpiperazin-1-yl)-7-methyl-5-oxo-1,3,4,5-tetrahydro-2H-chromeno[3,4-c]pyridine-3-carbonyl)benzamide] | 6.00 to 7.00 | F (<3) | 6.00 to 7.00
2 | COC[C@H]1CN(c2ccc3c4c(c(=O)oc3c2C)CN(C(=O)c2cc(OC3CCCC3)c(C(=O)NS(=O)(=O)N3CCCC3)c(C(F)(F)F)c2)CC4)CCN1C [Example 107, (R)-2-(cyclopentyloxy)-4-(8-(3-(methoxymethyl)-4-methylpiperazin-1-yl)-7-methyl-5-oxo-1,3,4,5-tetrahydro-2H-chromeno[3,4-c]pyridine-3-carbonyl)-N-(pyrrolidin-1-ylsulfonyl)-6-(trifluoromethyl)benzamide] | 6.00 to 7.00 | G (^ 3 to 9.0) | 5.30 to 6.00
3 | CCN1CCN(c2ccc3c4c(c(=O)oc3c2C)CN(C(=O)c2ccc(C(=O)NS(=O)(=O)N3CCCC3)c(OC3CCC3)c2F)CC4)C[C@@H]1COC [Example 172, (R)-2-cyclobutoxy-4-(8-(4-ethyl-3-(methoxymethyl)piperazin-1-yl)-7-methyl-5-oxo-1,3,4,5-tetrahydro-2H-chromeno[3,4-c]pyridine-3-carbonyl)-3-fluoro-N-(pyrrolidin-1-ylsulfonyl)benzamide] | 7.00 to 8.00 | F (<3) | 7.00 to 8.00
4 | CCOc1c(C(=O)NS(=O)(=O)N2CC3CCC(C3)C2)ccc(C(=O)N2CCc3c(c(=O)oc4c(C)c(N5CCN(C)[C@@H](COC)C5)cc(C)c34)C2)c1F [Example 235] | 7.00 to 8.00 | G (^ 3 to 9.0) | 6.00 to 7.00
5 | COC[C@H]1CN(c2ccc3c4c(c(=O)oc3c2C)CN(C(=O)c2ccc(C(=O)NS(=O)(=O)C3(C)CC3)c(OC3CCCC3)c2F)CC4)CCN1C [Example 9, (R)-2-(cyclopentyloxy)-3-fluoro-4-(8-(3-(methoxymethyl)-4-methylpiperazin-1-yl)-7-methyl-5-oxo-1,3,4,5-tetrahydro-2H-chromeno[3,4-c]pyridine-3-carbonyl)-N-((1-methylcyclopropyl)sulfonyl)benzamide] | 7.00 to 8.00 | F (<3) | 7.00 to 8.00
6 | COC[C@H]1CN(c2ccc3c4c(c(=O)oc3c2C)CN(C(=O)c2ccc(C(=O)NS(=O)(=O)C3(C)CC3)c(OC3CCC3)c2)CC4)CCN1C [Example 7, (R)-2-cyclobutoxy-4-(8-(3-(methoxymethyl)-4-methylpiperazin-1-yl)-7-methyl-5-oxo-1,3,4,5-tetrahydro-2H-chromeno[3,4-c]pyridine-3-carbonyl)-N-((1-methylcyclopropyl)sulfonyl)benzamide] | 7.00 to 8.00 | F (<3) | 7.00 to 8.00
7 | COC[C@H]1CN(c2cc(C)c3c4c(c(=O)oc3c2C)CN(C(=O)c2cc(OC3CCCC3)c(C(=O)NS(=O)(=O)N(C)C)cc2F)CC4)CCN1C [Example 110, (R)-2-(cyclopentyloxy)-N-(N,N-dimethylsulfamoyl)-5-fluoro-4-(8-(3-(methoxymethyl)-4-methylpiperazin-1-yl)-7,10-dimethyl-5-oxo-1,3,4,5-tetrahydro-2H-chromeno[3,4-c]pyridine-3-carbonyl)benzamide] | 7.00 to 8.00 | F (<3) | 7.00 to 8.00
8 | CCOc1c(C(=O)NS(=O)(=O)N2C3CCCC2CC3)ccc(C(=O)N2CCc3c(c(=O)oc4c(C)c(N5CCN(C)[C@@H](COC)C5)cc(C)c34)C2)c1F [Example 234] | 7.00 to 8.00 | F (<3) | 7.00 to 8.00
9 | CCOc1c(C(=O)NS(=O)(=O)N2C3CCC2CC3)ccc(C(=O)N2CCc3c(c(=O)oc4c(CC)c(N5CCN(C)[C@@H](COC)C5)ccc34)C2)c1F [Example 215, (R)-N-((7-azabicyclo[2.2.1]heptan-7-yl)sulfonyl)-2-ethoxy-4-(7-ethyl-8-(3-(methoxymethyl)-4-methylpiperazin-1-yl)-5-oxo-1,3,4,5-tetrahydro-2H-chromeno[3,4-c]pyridine-3-carbonyl)-3-fluorobenzamide] | 6.00 to 7.00 | F (<3) | 7.00 to 8.00

Results, then the molecule that gave them:

Row | pIC50 [1] | MTHFD1/MTHFD2 IC50 ratio [1] | pIC50 [2] | Compound
10 | 7.00 to 8.00 | H (>9.0 to 30) | 5.30 to 6.00 | COC[C@H]1CN(c2cc(Cl)c3c4c(c(=O)oc3c2C)CN(C(=O)c2ccc(C(=O)NS(=O)(=O)N3CCC[C@H]3COC)c(OC)c2)CC4)CCN1C [Example 283, 4-(10-chloro-8-((R)-3-(methoxymethyl)-4-methylpiperazin-1-yl)-7-methyl-5-oxo-1,3,4,5-tetrahydro-2H-chromeno[3,4-c]pyridine-3-carbonyl)-2-methoxy-N-(((S)-2-(methoxymethyl)pyrrolidin-1-yl)sulfonyl)benzamide]
11 | 8.00 to 9.00 | F (<3) | 7.00 to 8.00 | COC[C@H]1CN(c2cc(C)c3c4c(c(=O)oc3c2C)CN(C(=O)c2ccc(C(=O)NS(=O)(=O)N3CCCC3)c(OC3CC3)c2F)CC4)CCN1C [Example 212, (R)-2-cyclopropoxy-3-fluoro-4-(8-(3-(methoxymethyl)-4-methylpiperazin-1-yl)-7,10-dimethyl-5-oxo-1,3,4,5-tetrahydro-2H-chromeno[3,4-c]pyridine-3-carbonyl)-N-(pyrrolidin-1-ylsulfonyl)benzamide]
12 | 8.00 to 9.00 | F (<3) | 8.00 to 9.00 | COC[C@H]1CN(c2cc(C)c3c4c(c(=O)oc3c2C)CN(C(=O)c2ccc(C(=O)NS(=O)(=O)N(C)C)c(N3CCC(C)(C)C3)c2)CC4)CCN1C [Example 88, (R)-2-(3,3-dimethylpyrrolidin-1-yl)-N-(N,N-dimethylsulfamoyl)-4-(8-(3-(methoxymethyl)-4-methylpiperazin-1-yl)-7,10-dimethyl-5-oxo-1,3,4,5-tetrahydro-2H-chromeno[3,4-c]pyridine-3-carbonyl)benzamide]
13 | 8.00 to 9.00 | F (<3) | 7.00 to 8.00 | CCOc1c(C(=O)NS(=O)(=O)N(C)C)ccc(C(=O)N2CCc3c(c(=O)oc4c(C)c(N5CCN(C)[C@@H](COC)C5)cc(C)c34)C2)c1F [Example 146, (R)-N-(N,N-dimethylsulfamoyl)-2-ethoxy-3-fluoro-4-(8-(3-(methoxymethyl)-4-methylpiperazin-1-yl)-7,10-dimethyl-5-oxo-1,3,4,5-tetrahydro-2H-chromeno[3,4-c]pyridine-3-carbonyl)benzamide]
14 | 6.00 to 7.00 | F (<3) | 6.00 to 7.00 | CCOc1c(C(=O)NS(=O)(=O)N2CCCCC2)ccc(C(=O)N2CCc3c(c(=O)oc4c(C)c(N5CCN(C)[C@@H](COC)C5)ccc34)C2)c1F [Example 198, (R)-2-ethoxy-3-fluoro-4-(8-(3-(methoxymethyl)-4-methylpiperazin-1-yl)-7-methyl-5-oxo-1,3,4,5-tetrahydro-2H-chromeno[3,4-c]pyridine-3-carbonyl)-N-(piperidin-1-ylsulfonyl)benzamide]
